# Values quoted from earlier work as cited in patent US7718385B2, “Bioactivation of alkylating agents for cancer treatment” (priority 2003, dated 2010).
# What was measured:
# [1] = system: OVCAR-3; conditions: OVCAR-3, Ovarian, cited from earlier work
# [2] = system: UACC-257; conditions: UACC-257, Melanoma, cited from earlier work
# [3] = system: SN12C; conditions: cited from earlier work
# [4] = system: NCI-H23; conditions: NCI-H23, Non-Small Cell Lung, cited from earlier work
# [5] = system: MCF7; conditions: MCF7, Breast, cited from earlier work
# [6] = system: SK-MEL-5; conditions: SK-MEL-5, Melanoma, cited from earlier work
# [7] = system: NCI-H226; conditions: NCI-H226, Non-Small Cell Lung, cited from earlier work
# [8] = system: 786-0; conditions: 786-0, Renal, cited from earlier work
# [9] = system: HL-60(TB); conditions: cited from earlier work
# [10] = system: SNB-19; conditions: SNB-19, Central Nervous System, cited from earlier work
# [11] = system: HCT-116; conditions: HCT-116, Colon, cited from earlier work
# [12] = system: SW-620; conditions: SW-620, Colon, cited from earlier work
# [13] = system: SF-268; conditions: SF-268, Central Nervous System, cited from earlier work
# [14] = system: U251; conditions: U251, Central Nervous System, cited from earlier work
# [15] = system: OVCAR-8; conditions: OVCAR-8, Ovarian, cited from earlier work
# [16] = system: KM12; conditions: KM12, Colon, cited from earlier work
# [17] = system: SK-OV-3; conditions: SK-OV-3, Ovarian, cited from earlier work
# [18] = system: M14; conditions: M14, Melanoma, cited from earlier work
# [19] = system: LOX IMVI; conditions: cited from earlier work
# [20] = system: OVCAR-5; conditions: OVCAR-5, Ovarian; cited from earlier work
# [21] = system: HCT-15; conditions: HCT-15, Colon, cited from earlier work
compound,measurement,setting,value
"CC1=C(CO)C2=C(C)C3(CC3)[C@@](C)(O)C(=O)C2=C1 [Irofulven, 6-hydroxymethylacylfulvene]",GI50,[1],251 nM
same,TGI,[1],6.31E−07
same,log(GI50),[1],−6.6
same,log(TGI),[1],−6.2
same,CC50,[1]; read-out: LC50,≥ 100000 nM
same,GI50,[2],251 nM
same,TGI,[2],5.01E−07
same,log(GI50),[2],−6.6
same,log(LC50),[2],−5.3
same,log(TGI),[2],−6.3
same,CC50,[2]; read-out: LC50,5010 nM
same,GI50,[3]; Renal,398 nM
same,TGI,[3]; Renal,5.01E−06
same,log(GI50),[3]; Renal,−6.4
same,log(LC50),[3]; Renal,−4.3
same,log(TGI),[3]; Renal,−5.3
same,CC50,"[3]; read-out: LC50, Renal",50100 nM
same,GI50,[4],79.4 nM
same,TGI,[4],3.16E−07
same,log(GI50),[4],−7.1
same,log(LC50),[4],−6.1
same,log(TGI),[4],−6.5
same,CC50,[4]; read-out: LC50,794 nM
same,GI50,[5],251 nM
same,TGI,[5],2.00E−06
same,log(GI50),[5],−6.6
same,log(TGI),[5],−5.7
same,CC50,[5]; read-out: LC50,≥ 100000 nM
same,GI50,[6],158 nM
same,TGI,[6],3.98E−07
same,log(GI50),[6],−6.8
same,log(LC50),[6],−6
same,log(TGI),[6],−6.4
same,CC50,[6]; read-out: LC50,1000 nM
same,GI50,[7],200 nM
same,TGI,[7],5.01E−07
same,log(GI50),[7],−6.7
same,log(LC50),[7],−5.2
same,log(TGI),[7],−6.3
same,CC50,[7]; read-out: LC50,6310 nM
same,GI50,[8],200 nM
same,TGI,[8],5.01E−07
same,log(GI50),[8],−6.7
same,log(LC50),[8],−5.7
same,log(TGI),[8],−6.3
same,CC50,[8]; read-out: LC50,2000 nM
same,GI50,[9]; Leukemia,251 nM
same,TGI,[9]; Leukemia,2.00E−06
same,log(GI50),[9]; Leukemia,−6.6
same,log(TGI),[9]; Leukemia,−5.7
same,CC50,"[9]; read-out: LC50, Leukemia",≥ 100000 nM
same,GI50,[10],316 nM
same,TGI,[10],1.00E−05
same,log(GI50),[10],−6.5
same,log(LC50),[10],−4.2
same,log(TGI),[10],−5
same,CC50,[10]; read-out: LC50,63100 nM
same,GI50,[11],200 nM
same,TGI,[11],5.01E−07
same,log(GI50),[11],−6.7
same,log(LC50),[11],−4.5
same,log(TGI),[11],−6.3
same,CC50,[11]; read-out: LC50,31600 nM
same,GI50,[12],631 nM
same,TGI,[12],3.16E−05
same,log(GI50),[12],−6.2
same,log(TGI),[12],−4.5
same,CC50,[12]; read-out: LC50,≥ 100000 nM
same,GI50,[13],251 nM
same,TGI,[13],2.51E−06
same,log(GI50),[13],−6.6
same,log(TGI),[13],−5.6
same,CC50,[13]; read-out: LC50,≥ 100000 nM
same,GI50,[14],316 nM
same,TGI,[14],6.31E−06
same,log(GI50),[14],−6.5
same,log(LC50),[14],−4.3
same,log(TGI),[14],−5.2
same,CC50,[14]; read-out: LC50,50100 nM
same,GI50,[15],200 nM
same,TGI,[15],6.31E−07
same,log(GI50),[15],−6.7
same,log(LC50),[15],−5
same,log(TGI),[15],−6.2
same,CC50,[15]; read-out: LC50,10000 nM
same,GI50,[16],631 nM
same,TGI,[16],2.51E−06
same,log(GI50),[16],−6.2
same,log(LC50),[16],−4.9
same,log(TGI),[16],−5.6
same,CC50,[16]; read-out: LC50,12600 nM
same,GI50,[17],251 nM
same,TGI,[17],1.00E−06
same,log(GI50),[17],−6.6
same,log(LC50),[17],−5
same,log(TGI),[17],−6
same,CC50,[17]; read-out: LC50,10000 nM
same,GI50,[18],251 nM
same,TGI,[18],6.31E−07
same,log(GI50),[18],−6.6
same,log(LC50),[18],−5.7
same,log(TGI),[18],−6.2
same,CC50,[18]; read-out: LC50,2000 nM
same,GI50,[19]; Melanoma,631 nM
same,TGI,[19]; Melanoma,3.16E−06
same,log(GI50),[19]; Melanoma,−6.2
same,log(LC50),[19]; Melanoma,−4.4
same,log(TGI),[19]; Melanoma,−5.5
same,CC50,"[19]; read-out: LC50, Melanoma",39800 nM
same,GI50,[20],158 nM
same,TGI,[20],5.01E−07
same,log(GI50),[20],−6.8
same,log(LC50),[20],−4.3
same,log(TGI),[20],−6.3
same,GI50,[21],316 nM
same,TGI,[21],5.01E−06
same,log(GI50),[21],−6.5
same,log(TGI),[21],−5.3
same,CC50,[21]; read-out: LC50,≥ 100000 nM
